Patent publication US8486991B2, “Enantiomerically pure phosphoindoles as HIV inhibitors” (Idenix Pharmaceuticals, Inc., priority 2006, dated 2013)
Several values for one entry are separate records, joined by “and”; a condition that tells them apart may be missing. Equal entries are not always repeated. Where two headings read alike, the source gives them in different places.

Assays:
[1] = Longer term cytotoxicity, 12 days, MTS, HepG2; conditions: human, HepG2 liver cells
Procedure: (§2) Cell viability was measured by standard MTT or MTS staining.
(§3) Cells were repeatedly treated with a range of drug concentrations (0.005 to 100 μM) for 9 (HeLa) or 12 days (HuH7, HepG2).

[2] = target: T1, human DNA polymerase gamma (Homo sapiens, UniProt P54098); assay: Human cellular DNA polymerase gamma assay; format: biochemical
T1 sequence (P54098 1-1239): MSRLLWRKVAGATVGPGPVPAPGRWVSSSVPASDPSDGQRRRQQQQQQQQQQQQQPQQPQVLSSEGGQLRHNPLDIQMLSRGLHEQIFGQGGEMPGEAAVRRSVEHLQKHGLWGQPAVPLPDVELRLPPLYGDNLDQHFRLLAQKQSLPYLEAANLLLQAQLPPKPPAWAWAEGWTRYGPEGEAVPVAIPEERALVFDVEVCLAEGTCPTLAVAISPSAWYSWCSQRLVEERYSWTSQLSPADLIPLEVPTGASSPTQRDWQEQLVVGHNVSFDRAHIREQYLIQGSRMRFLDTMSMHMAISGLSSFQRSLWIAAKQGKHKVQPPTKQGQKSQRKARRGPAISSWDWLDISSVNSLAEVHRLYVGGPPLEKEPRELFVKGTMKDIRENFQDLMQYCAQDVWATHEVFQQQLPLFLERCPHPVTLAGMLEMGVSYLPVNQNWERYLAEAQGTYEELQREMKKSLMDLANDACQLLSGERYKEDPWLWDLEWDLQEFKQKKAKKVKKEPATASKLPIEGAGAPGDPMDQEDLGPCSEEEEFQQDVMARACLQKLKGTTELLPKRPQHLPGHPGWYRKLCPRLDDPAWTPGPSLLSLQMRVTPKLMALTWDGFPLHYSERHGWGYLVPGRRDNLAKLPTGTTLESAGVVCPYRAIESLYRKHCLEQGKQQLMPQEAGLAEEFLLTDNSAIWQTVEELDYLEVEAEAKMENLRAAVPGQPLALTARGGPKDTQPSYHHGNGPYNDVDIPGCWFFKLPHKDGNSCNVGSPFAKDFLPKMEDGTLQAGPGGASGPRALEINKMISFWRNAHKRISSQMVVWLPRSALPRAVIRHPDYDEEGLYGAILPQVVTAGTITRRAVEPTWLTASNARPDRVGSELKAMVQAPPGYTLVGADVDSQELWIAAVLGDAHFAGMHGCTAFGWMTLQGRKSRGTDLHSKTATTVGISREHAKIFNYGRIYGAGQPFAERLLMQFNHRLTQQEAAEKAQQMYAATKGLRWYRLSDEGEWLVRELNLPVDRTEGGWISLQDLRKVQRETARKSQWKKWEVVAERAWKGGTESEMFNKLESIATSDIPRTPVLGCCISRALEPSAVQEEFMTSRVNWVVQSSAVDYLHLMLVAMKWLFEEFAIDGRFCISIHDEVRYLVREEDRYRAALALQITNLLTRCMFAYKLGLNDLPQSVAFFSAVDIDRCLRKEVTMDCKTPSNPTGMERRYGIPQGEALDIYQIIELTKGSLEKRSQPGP
Text: (§1) HIV RT, like other viral polymerase, shares limited structural homology with the cellular DNA polymerases responsible for normal nuclear and mitochondrial DNA synthesis and repair. This raises the formal possibility that inhibitors of HIV RT might inhibit cellular polymerases, resulting in cellular toxicity. In particular, inhibition of polymerase gamma has the potential to result in mitochondrial toxicity. The ability of Compound I and Compound III to inhibit cellular DNA polymerases was assessed using standard in vitro assays (Table 5).

[3] = system: HIV-1 K103N clinical isolates 4937 and 5002; assay: microbe, parasite or virus in culture; format: cell-based; conditions: Human immunodeficiency virus 1, PBMC, read-out: Average EC50 Values ± Standard Deviation, K103N
[4] = Longer term cytotoxicity, HeLa, HuH7 and HepG2 (ranges); conditions: human, HuH7 and HepG2 cells (range over the three lines), HuH7 and HepG2, 9-12 day testing
Procedure: as §2, §3

[5] = target: human DNA polymerase beta (Homo sapiens, UniProt P06746); assay: Human cellular DNA polymerase beta assay; format: biochemical
Text: as §1

[6] = system: HIV-1 BH10 wild-type virus; assay: CPE / cell protection assay, MT-4 cells, BH10 wild-type; format: cell-based; conditions: for EC50: Human immunodeficiency virus 1, MT4
Procedure: The activity of the compounds was also assessed with the same virus and cell type using a different assay readout based on cytopathic effect (CPE).
MT-4 cells (Source: NIH Catalog #120) were seeded onto 96-well cell culture plates (1×10^4 cells per well in 50 μL).
The final DMSO concentration in the assay was 0.5% in 120 μL. Cell cultures were then incubated at 37° C./5% CO2 for 4 days. Then, Cell Titer 96 AQueous One Solution Cell Proliferation Assay (Promega) was used to measure cell viability. Briefly, the One Solution Reagent was added directly to culture wells (20 μL/well), incubated for 5 hours, and the absorbance was recorded at 492 nm using the Sunrise Tecan Spectrophotometer.
The EC50 values were determined from the percent inhibition versus concentration data using a sigmoidal non-linear regression analysis based on four parameters with Tecan Magellan software.

[7] = Cellular cytotoxicity, 4 days, MTS, U937; format: cell-based; conditions: human, U-937 cells (monocytes derived from a histiocytic lymphoma), Table 21, read-out: Average CC50 Values ± Standard Deviation, U937
Procedure: as §2
(§4) Following drug exposure for 4 days, cell viability was measured by MTS staining and CC50 values were determined. Drug concentrations ranged from 0.005 μM to 100 μM.

[8] = system: HIV-1 W.T. strains BH10, NL4-3 and IIIB; assay: Drug susceptibility assays, 3 W.T. strains in 5 human cell lines (ranges); format: cell-based
Text: The virus and host-cell dependency of Compound I, Compound III and control drugs was further examined in drug susceptibility assays performed across 3 different subtype B wild-type HIV-1 strains and 5 different cell lines.

[9] = system: HIV-1 BH10 wild-type virus; assay: microbe, parasite or virus in culture; format: cell-based
[10] = Cellular cytotoxicity, 4 days, MTS, IM9; format: cell-based; conditions: human, IM9 cells (B lymphoblastic cell line), Table 21, read-out: Average CC50 Values ± Standard Deviation, IM9
Procedure: as §2, §4

HIV-1 BH10 W.T. = assay: Anti-HIV-1 BH10 W.T. activity in presence of HS or AAG; format: cell-based; conditions: for EC50: Human immunodeficiency virus 1
[11] = Table 5, preliminary data from a single experiment, read-out: Average IC50 Values, DNA Pol Gamma
[12] = Table 5, read-out: Average IC50 Values ± Standard Deviation, DNA Pol Beta
[13] = Table 8, CPE readout, read-out: Average EC50 Values ± Standard Deviation, W.T.
[14] = range over the three agents, read-out: mean EC50 values, WT BH10 virus, CPE assay
[15] = Human immunodeficiency virus 1, Table 17, over all virus/host combinations, read-out: Mean Activity Range
[16] = Human immunodeficiency virus 1, read-out: EC50 range, 3 HIV-1 viral strains in 5 host human cell lines
[17] = Human immunodeficiency virus 1, MT4, 96 h, read-out: mean EC50, wild-type BH10 virus in MT-4 cells, p24 ELISA, 4 day
[18] = Human immunodeficiency virus 1, MT4, read-out: Average EC50 Values ± Standard Deviation, host MT-4, virus BH10, Table 17
[19] = Table 19, AAG 1 mg/ml, read-out: Average EC50 Values ± Standard Deviation, 10% Fetal Bovine Serum + AAG
[20] = Table 19, AAG 1 mg/ml, read-out: Average EC50 Values ± Standard Deviation, 45% Human Serum + AAG
[21] = Table 19, read-out: Average EC50 Values ± Standard Deviation, 10% Fetal Bovine Serum
[22] = Table 19, read-out: Average EC50 Values ± Standard Deviation, 45% Human Serum
[23] = text b887, read-out: mean EC50 values, 45% HS+AAG
[24] = Table 20, vs 10% FBS only, listed as Cmpd III

SMILES: CO[P@](=O)(c1cc(C)cc(/C=C/C#N)c1)c1c(C(N)=O)[nH]c2ccc(Cl)cc12 [Compound III, (2-Carbamoyl-5-chloro-1H-indol-3-yl)-[3-((E)-2-cyano-vinyl)-5-methyl-phenyl]-(R)-phosphinic acid methyl ester]
- CC50 at 12 days [1]: 23.5 ± 1.51 µM
- IC50 [2, 11]: ≥ 60 µM and 60.1 µM
- EC50 [3]: 0.0009 ± 0.0004 µM
- CC50 [4]: 23.5 to 31.5 µM
- Average IC50 Values ± Standard Deviation, DNA Pol Beta ([5]; Table 5): did not reach an IC50
- IC50 [5, 12]: ≥ 479 µM
- EC50 ([6]; Cell Protection Assay tables, unit inferred, read-out: EC50, BH10): 0.15 ± 0.11 nM
- EC50 [6, 13]: 0.2 ± 0.1 nM
- EC50 [6, 14]: 0.1 to 0.7 nM
- Fold Change, W.T. ([6]; Table 9, CPE): 1 fold
- CC50 at 4 days [7]: 24.6 ± 1.9 µM
- EC50 [8, 15]: 0.0005 µM
- EC50 [8, 16]: 0.0005 to 0.0017 µM
- EC50 [9, 17]: 0.0012 µM
- EC50 [9, 18]: 0.0012 ± 0.0006 µM
- Fold Change, W.T. ([9]; Table 7, EC50 mutant / EC50 wild-type): 1 fold
- EC50 ([9]; read-out: mean EC50, wild-type BH10 virus in MT-4 cells, p24 ELISA, 4 day): ~0.001 µM and 0.001 µM
- CC50 at 4 days [10]: 50 ± 17.4 µM
- EC50 (HIV-1 BH10 W.T.; [19]): 0.0028 ± 0.0004 µM
- EC50 (HIV-1 BH10 W.T.; [20]): 0.0326 ± 0.0073 µM
- EC50 (HIV-1 BH10 W.T.; [21]): 0.0012 ± 0.0004 µM
- EC50 (HIV-1 BH10 W.T.; [22]): 0.0219 ± 0.0117 µM
- EC50 (HIV-1 BH10 W.T.; [23]): 0.0326 µM
- Fold Change, 10% Fetal Bovine Serum (HIV-1 BH10 W.T.; Table 20): 1 fold
- Fold Change, 45% Human Serum (HIV-1 BH10 W.T.; Table 20, vs 10% FBS only): 17.0 ± 6.3 fold
- Fold Change, 45% Human Serum + AAG (HIV-1 BH10 W.T.; Table 20, vs 10% FBS only): 19.5 fold and 24.8 fold
- Fold Change, 10% Fetal Bovine Serum + AAG (HIV-1 BH10 W.T.; [24]): 2.1 ± 0.5 fold
- Fold Change, 45% Human Serum + AAG (HIV-1 BH10 W.T.; [24]): 24.8 ± 3.8 fold

SMILES: O=C1Nc2ccc(Cl)cc2C(C#CC2CC2)(C(F)(F)F)O1 (stereo not shown) [EFV, 6-chloro-4-cyclopropylethynyl-4-trifluoromethyl-1,4-dihydro-2H-3,1-benzoxazin-2-one, reference compound]
- CC50 at 12 days [1]: 80.6 ± 12.1 µM
- IC50 [2, 11]: 116 µM
- IC50 ([2]; Table 6, N=4, read-out: Mean IC50 Values ± Standard Deviation, DNA Pol Gamma): ≥ 100 µM
- EC50 [3]: 0.0414 ± 0.0369 µM
- CC50 [4]: 48 to 81 µM
- Average IC50 Values ± Standard Deviation, DNA Pol Beta ([5]; Table 5): did not reach an IC50
- IC50 [5, 12]: 314 ± 177 µM
- IC50 ([5]; Table 6, N=4, read-out: Mean IC50 Values ± Standard Deviation, DNA Pol Beta): 314 ± 177 µM
- EC50 [6, 13]: 0.6 ± 0.1 nM
- EC50 [6, 14]: 0.1 to 0.7 nM
- CC50 at 4 days [7]: 23.2 ± 1 µM
- EC50 [8, 15]: 0.0008 ± 0.0023 µM
- EC50 [8, 16]: 0.0004 to 0.0032 µM
- EC50 [9, 17]: ~0.001 µM
- EC50 [9, 18]: 0.0012 ± 0.0008 µM
- CC50 at 4 days [10]: 51 ± 1.3 µM
- EC50 (HIV-1 BH10 W.T.; [19]): 0.005 ± 0.0023 µM
- EC50 (HIV-1 BH10 W.T.; [20]): 0.0116 ± 0.0074 µM
- EC50 (HIV-1 BH10 W.T.; [21]): 0.0016 ± 0.0005 µM
- EC50 (HIV-1 BH10 W.T.; [22]): 0.0115 ± 0.0039 µM
- EC50 (HIV-1 BH10 W.T.; [23]): 0.0116 µM
